Here are results for four compounds from paper PMC9645375, “Pattern enrichment analysis for phage selection of stapled peptide ligands” (Chemical Science, 2022).

Numbered stars: 1 amine (or outer) side, 2 acyl side, 3 side chain; on linkers, the order of the positions; unused ones are H or OH. Bridge positions count the residues as written; N and C are the ends. Peptide text beside a SMILES is read from it. X1 = O=C(C[*:1])NCCCCCNC(=O)C[*:2]

The target in data set [1] is interaction between SARS-CoV-2 spike RBD and ACE2 (Severe acute respiratory syndrome coronavirus 2, UniProt P0DTC2). Put plainly: biochemical. The data set is classed as binding. Particulars: n = 3.
Data set [2] in a line: CD measurement of helical content. The data set is classed as physicochemical.
Data set [3] has as its target T1, HDM2 (human double minute 2) (Homo sapiens, UniProt Q00987).
T1 construct: His-tag; made in house
The experiment in a line: Fluorescence polarisation competition binding assay against FAM-ATSP-3848. Particulars: for inhibition of FAM-ATSP-3848 binding to HDM2 (in words): fluorescence polarisation, 100 nM HDM2, 10 nM FAM-ATSP-3848. As to the method: Fig. 4 Position–amino acid pattern enrichment analysis of the HDM2-R3 pool. (a) Pattern enrichment score calculation. For both sequence data (FASTQ), the abundance of each position–amino acid pattern was determined. Enrichment values were calculated as the ratio of abundance in the selected sample to that in the control sample. (b) Venn diagram showing pattern coverage (white, whole space of three-window patterns; blue, patterns found in Amp-R3 dataset; red, patterns found in HDM2-R3 dataset). (c) Scattering plot indicating the abundance of control (x-axis) and HDM2-R3 selected sample (y-axis). Red circles are patterns with log2(ratio) values greater than 8. (d) Position–amino acid patterns ranked in the top 20. (e) WebLogo depicting enriched sequences determined from enriched patterns with log2(ratio) values greater than 8. (f) Sequences and helical wheel diagrams of HDM2-p13 and HDM2-opt peptides. Highly enriched residues are coloured red. (g) Fluorescence polarisation assay for competitive inhibition. Peptides (50 nM to 50 μM) were mixed with 100 nM HDM2 and 10 nM FAM-ATSP-3848. […] Error bar represents SD (n = 3).
Competition binding assay
The peptides (50 nM–50 µM) was mixed with 100 nM of HDM2 and 10 nM of FAM-AT P S-3848 in HBS buffer (10 mM HEPES, 150 mM NaCl, pH 7.5). The fluorescence polarization was measured by ARVO MX plate […]
values of peptide inhibitors were calculated by nonlinear regression analysis using Prism (GraphPad Software).
Pull-down competition binding assay
Recombinant SARS-CoV-2 Spike RBD His Biotin Protein (R&D Systems, BT10500) at 4 µg/mL concentration in HBS buffer was incubated with 3 mg/mL of DynaBeads M-280 (ThermoFisher) for 2 hours at 4 °C. […]
After one hour incubation at room temperature, the beads were rinsed three times with HBS-T ( 2 0 0 µL/well). […] The chemiluminescent bands were detected using LuminoGraphI (ATTO) with ImageSaver6 software. From the band intensities, IC50 values of peptide inhibitors were calculated by nonlinear regression analysis using Prism (GraphPad Software).
(In general: In fluorescence polarisation assays a small probe gives low polarisation when free and higher when bound to something large.)

T1 sequence (Q00987 whole entry): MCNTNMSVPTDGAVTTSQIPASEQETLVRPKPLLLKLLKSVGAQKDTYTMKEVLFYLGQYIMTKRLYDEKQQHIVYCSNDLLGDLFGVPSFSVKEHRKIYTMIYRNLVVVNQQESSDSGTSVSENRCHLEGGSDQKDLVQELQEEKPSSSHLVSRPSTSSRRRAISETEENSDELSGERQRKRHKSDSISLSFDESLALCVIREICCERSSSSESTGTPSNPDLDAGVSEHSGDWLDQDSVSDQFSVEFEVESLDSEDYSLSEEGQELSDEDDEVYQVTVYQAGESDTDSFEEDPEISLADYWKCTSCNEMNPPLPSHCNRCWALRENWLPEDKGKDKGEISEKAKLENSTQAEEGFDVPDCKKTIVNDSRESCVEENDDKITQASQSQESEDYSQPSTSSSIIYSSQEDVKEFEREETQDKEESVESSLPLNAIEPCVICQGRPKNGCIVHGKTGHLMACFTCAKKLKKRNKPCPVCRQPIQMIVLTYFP

By IC50 is commonly meant the point on the concentration scale where inhibition reaches its midpoint. A higher IC50 goes with weaker potency in that assay. Turning to `CC(C)C[C@@H]1NC(=O)[C@@H](NC(=O)[C@@H](N)[C@@H](C)O)CSCC(=O)NCCCCCNC(=O)CSC[C@@H](C(=O)N[C@@H](Cc2ccccc2)C(N)=O)NC(=O)[C@H](CCC(=O)O)NC(=O)[C@H](Cc2ccccc2)NC(=O)[C@H](Cc2c[nH]c3ccccc23)NC(=O)[C@H](CO)NC(=O)[C@H](CO)NC1=O` [CoV-2-p2] (H-TCLSSWFECF-NH2; linker 2-9 via X1), half-maximal inhibition in data set [1] (IC50) was put at 12.9 ± 4.9 µM. The “conformational preference (in words)” value in data set [2] is “prefer a helical conformation”. Also, the helical content in data set [2] (pH 7.5) was 45%.
Consider `CC(C)C[C@H](NC(=O)[C@@H]1CSCC(=O)NCCCCCNC(=O)CSC[C@H](NC(=O)[C@H](C)N)C(=O)N[C@@H](Cc2ccccc2)C(=O)N[C@@H](CC(=O)O)C(=O)N[C@@H](CCC(=O)O)C(=O)N[C@@H](Cc2ccc(O)cc2)C(=O)N[C@@H](Cc2c[nH]c3ccccc23)C(=O)N[C@@H](CCC(N)=O)C(=O)N1)C(N)=O` [HDM2-p13] (H-ACFDEYWQCL-NH2; linker 2-9 via X1), for which, in data set [2] (CD, 25% TFE, 30 µM peptide, HBS buffer (10 mM HEPES, 150 mM NaCl, pH 7.5), calculated by BeStSel web server), the helical content is on record as 43%. The compound also had an IC50 in data set [3] (competitive inhibition FP, peptides 50 nM to 50 μM, 100 nM HDM2, 10 nM FAM-ATSP-3848, HBS buffer (10 mM HEPES, 150 mM NaCl, pH 7.5), SD, n = 3) of 4.8 ± 0.6 µM. Also, in data set [3], the “inhibition of FAM-ATSP-3848 binding to HDM2 (in words)” value is “inhibited the high-affinity binding”.
Turning to `CC(C)C[C@H](NC(=O)[C@@H]1CSCC(=O)NCCCCCNC(=O)CSC[C@H](NC(=O)[C@@H]2CCCN2)C(=O)N[C@@H](Cc2ccccc2)C(=O)N[C@@H](Cc2ccc(O)cc2)C(=O)N[C@@H](CC(=O)O)C(=O)N[C@@H](Cc2ccc(O)cc2)C(=O)N[C@@H](Cc2c[nH]c3ccccc23)C(=O)N[C@@H](CCC(N)=O)C(=O)N1)C(N)=O` [HDM2-opt] (H-PCFYDYWQCL-NH2; linker 2-9 via X1), the “inhibition of FAM-ATSP-3848 binding to HDM2 (in words)” value in data set [3] was “exhibited effective inhibition”.
In data set [1], `CC(C)C[C@@H]1NC(=O)[C@H](Cc2ccc(O)cc2)NC(=O)[C@H](CC(=O)O)NC(=O)[C@H](Cc2ccccc2)NC(=O)CNC(=O)[C@H](Cc2c[nH]c3ccccc23)NC(=O)[C@@H](NC(=O)[C@@H](N)[C@@H](C)O)CSCC(=O)NCCCCCNC(=O)CSC[C@@H](C(=O)N[C@@H](Cc2c[nH]c3ccccc23)C(N)=O)NC1=O` [CoV-2-p5] (H-TCWGFDYLCW-NH2; linker 2-9 via X1) came in with an IC50 of 3.8 ± 3.3 µM. The compound further returned a helical content in data set [2] (pH 7.5) of 12%.
